Where two headings read alike, the source gives them in different places. Where a SMILES comes first, the peptide text is derived from it. Where no end group is shown, it is not given here. The star is where a group is joined. Cbz = O=C(OCc1ccccc1)*; CH2F = FC*
Key:
[1] = tested on: Human umbilical vein endothelial cells (HUVEC); experiment: Endothelial cell migration assay (transwell) on ECM substrates; assay type: cell-based; settings: for endothelial cell migration on vitronectin: 1 μM peptide
Procedure: Human umbilical vein endothelial cells (HUVEC) were grown in Endothelial Growth Medium (containing 2% fetal bovine serum, bFGF and VEGF) (Clonetics, San Diego, Calif.). To render HUVECs quiescent for Rac and/or Rho assays, monolayers of endothelial cells were incubated for 18 hrs in Endothelial Basal Medium supplemented with 0.1% serum (Clonetics). Cell migration and adhesion assays on ECM substrates were performed as previously described in Kim et al. (S. Kim et al., Amer. J. Biol. Chem., 275:33920-33928 (2000); and S. Kim et al., Amer. J. Path., 156:1345-1362 (2000)).
Migration assays were performed essentially as described (Kim, et. al., 2000). […] HUVECS (25,000) were added to the upper chamber of inserts in migration buffer (Hepes buffered M199 medium containing 1% BSA, 2 mM MgCl2, 2 mM CaCl2 and 0.2 mM MnCl2) containing 25 μg/ml of various antibodies. In some experiments, 250 μM dibutyryl cAMP was placed in the upper and lower chambers of the transwell. Cells were allowed to migrate from the upper to the lower chamber for four hours at 37° C. The number of cells which had migrated were counted in three representative high power (200×) fields per insert. The data are presented as number of cells migrating+/−standard error of the mean. Migration assays were similarly performed on transfected cells. In this case, migrated transfected cells were identified by fluorescent microscopy and counted.

[2] = tested on: chick chorioallantoic membrane (CAM); experiment: Chick chorioallantoic membrane (CAM) angiogenesis assay; assay type: in vivo, chicken; settings: for effect on inhibition of angiogenesis by anti-αvβ3: 500 μM caspase inhibitors; for effect on inhibition of angiogenesis by anti-α5β1: 500 μM caspase inhibitors or 4 μg plasmid; for angiogenesis (blood vessel branch points, vessel density): 1 μM peptide
HUVECS [3] = experiment: Annexin V-FITC staining of HUVECs (apoptosis); assay type: cell-based, human
Procedure: Plates were also coated with […] goat anti-mouse IgG (Southern Biotechnology Associates, Inc., Birmingham, Ala.) at 37° C. for 2 h, rinsed, blocked with denatured BSA, and then incubated with […] anti-a5b1 or control IgG (anti-MHC) at 4° C. for 16 hrs. HUVECs were incubated on plates in the presence or absence of 10 mg/ml anti-α5β1, -αvβ3, -α2β1, or -MHC for 0-24 hrs. In some experiments, HUVECs were incubated with antibodies and […] caspase-3, -8 or -9 inhibitors or vehicle control (0.5% DMSO). Cells were then incubated with Annexin V-FITC for 15 min at room temperature in the dark. Washed cells were fixed in 1% paraformaldehyde, then incubated in DAPI. The percentage of Annexin positive cells in 5 microscopic fields was determined at 200× magnification by fluorescence microscopy.
(§1) HUVECs were plated for 24 h on ECM protein-coated plates in the presence of anti-αvβ3 or anti-α5β1, 1 μM HA1004 (a PKA inhibitor), and anti-αvβ3 or anti-α5β1 with 1 μM HA1004. Cells were stained with FITC-Annexin V or immunoblotted with anti-cleaved caspase 3 antibodies as described above. 5×10^6 HUVECs were electroporated in 300 μl of EGM with 30 μg of DNA (20 μg dnPKA or PKAcat plasmids, 2 μg N1-GFP and 8 μg pBluescript) at 300 V, 450 μF as previously described (Dormond et al. (2001) Nature Med. 7,1041-7). Expression of transgenes was determined by Western blotting of cell lysates with anti-V5 and anti-GFP antibodies. Transfection efficiency was quantified by determining the percent of cells that were co-transfected with GFP-expression vectors. Eighty-percent transfection efficiency was generally achieved using this electroporation method.

HUVECS [4] = experiment: Apoptosis assays in HUVECs (PARP and caspase immunoblots, caspase activity, DNA fragmentation); assay type: cell-based, human
Procedure: In some embodiments, HUVECs were incubated on ECM or antibody coated plates for 0-24 hrs. DNA fragmentation was detected by agarose gel electrophoresis as described in M. Herrmann et al. (See, M. Herrmann et al., Nucleic Acids Res., 22:5506-5507 (1994)). Alternatively, HUVECS on plates were lyzed with RIPA buffer (See, S. Kim et al., J. Biol. Chem., 275:33920-33928 (2000)) on ice. Lysates were electrophoresed on 8% SDS-PAGE gels and immunoblotted with anti-PARP, -caspase-3, -caspase-9, -cleaved caspase 3, or -cleaved caspase-9 antibodies. Immunoreactive bands were identified by chemiluminescence and quantified by densitometry. Caspase 3 and 8 activities were determined in cell lysates according to manufacturer's instructions (Calbiochem, La Jolla, Calif.).
as §1

[5] = tested on: chick chorioallantoic membrane (CAM); experiment: Apoptosis markers in CAM blood vessels in vivo (Annexin V, cleaved caspases, TUNEL, DNA gels); design: species or system chicken; settings: for caspase activity in vivo (cleaved caspase immunoblot): CAMs treated with anti-α5β1 and caspase inhibitor; for effect on endothelial cell DNA fragmentation induced by α5β1 inhibition in vivo: TUNEL staining of CAM cryosections
Procedure: CAM assays were performed as described (Kim et al. (2000) Am. J. Path. 156:1345-1362). Saline or bFGF stimulated CAMs were treated for 24 h with 20 μg anti-α5β1, anti-αvβ3 or control antibodies and then injected intravenously with 50 μl Annexin V-FITC. CAMs were harvested after 2 h, then analyzed by confocal microscopy. Alternatively, CAMs treated as above were excised, minced on ice, and treated with 0.1% dispase/0.1% collagenase for 1 h at 37° C. Single cell suspensions were incubated with FITC-Annexin V and analyzed as described above. bFGF stimulated CAMs were also treated with anti-α5β1 or anti-αvβ3 in the presence or absence of 500 μM caspase-3, -8 or -9 inhibitors. bFGF stimulated CAMs were also transfected with 4 μg N1-GFP, dnPKA or PKAcat expression plasmids. Freshly excised CAMs were homogenized in ice cold RIPA buffer containing protease inhibitors and immunoblotted to detect intact and cleaved caspase 3 or 8. For all treatment groups, n=10. CAMs were fixed with 3.7% paraformaldehyde prior to excision. The average number of blood vessel branch points per treatment group+/−SEM is presented. Some excised CAMs were cryopreserved, cut into 5 μm sections, immunostained with anti-cleaved caspase 3, anti-cleaved caspase 8 and anti-VFW antibodies (to detect blood vessels). CAMs were also stained by the TUNEL method to detect fragmented DNA.

[6] = tested on: DU145 prostate carcinoma tumors; experiment: DU145 tumor assay in nude mice; assay type: in vivo; settings: daily intravenous injections, ten days
protein kinase A = experiment: PKA activity assay in HUVECs; assay type: cell-based, human
Procedure: PKA activity was measured in HUVECs essentially as previously described in Kim et al (S. Kim et al., Amer. J. Biol. Chem., 275:33920-33928 (02000)). HUVECs were placed in suspension, allowed to attach to ECM protein coated plates in the absence or presence of anti-integrin antibodies or were treated with 10 μM PTHrP and/or 250 μM cAMP. PKA activity was measured at various times from 0-4 hrs (e.g., 2-30 min).
Plates were washed and blocked in 3% bovine serum albumin for 1 hour at 37° C. HUVECS were trypsinized and resuspended in adhesion buffer (Hanks balanced salt solution supplemented with 10 mM HEPES, pH 7.4, 2 mM MgCl2, 2 mM CaCl2, 0.2 mM MnCl2, 1% BSA. Cells were plated on matrix protein coated plates in culture medium or in the presence of 25 μg/ml anti-α5β1, anti-αvβ3 or anti-α2β1 antibodies for various times from 0 minutes to 4 hours. Plates were washed with phosphate buffered saline and cells were extracted with cold extraction buffer (50 mM Tris, pH 7.5, 5 mM EDTA, 25 μg/ml aprotinin and 25 μg/ml leupeptin). Protein Kinase A activity was assessed using a kit from Gibco BRL. Briefly, equal volumes of lysate and reaction mixture containing final concentrations of 50 mM Tris, pH 7.5, 10 mM MgCl2, 0.25 mg/ml BSA, 50 μM Kemptide (a protein kinase A substrate), 3000 Ci/mmol (γ^32 P) ATP and 100 μM ATP were combined for 5 minutes at 30° C. Total PKA in each sample was measured by performing the assay in the presence of 10 μM cAMP. Background PKA activity in test and total PKA samples were determined by performing the assay in the presence of a PKA inhibitor peptide, PKI (6-22) amide. Twenty μl samples of reaction mixtures were spotted onto phosphocellulose discs and washed repeatedly with 1% (v/v) phosphoric acid in water. Incorporated radioactivity was determined by scintillation counting. Activated PKA was calculated from the ratio of pmol/min test sample PKA to pmol/min total PKA. PKA activity in triplicate samples was measured and experiments were repeated at least three times.
In another embodiment, PKA assays were performed with a kit from Calbiochem (San Diego, Calif.). Cell lysates were incubated in ELISA plates coated with a PKA peptide substrate, then incubated with anti-phosphoserine antibodies. Bound antibody was detected after incubation with anti-rabbit IgG-horse radish peroxidase. Statistical analyses were performed using Student's t-test.

With `O=S(=O)(NCCNCC=Cc1ccc(Br)cc1)c1cccc2cnccc12` [H89, N-(2-(p-bromocinnamylamino)ethyl)-5-isoquinoline sulfonamide] the “effect on cAMP-, PKA catalytic subunit- or PTHrP-mediated inhibition of cell migration” value ([1]; HUVEC on vitronectin) was “blocked the anti-migratory properties of PTHrP” and the “effect on inhibition of angiogenesis by PTHrP” value ([2]; bFGF stimulated CAMs, 8B12, 480 nM H89 or dnPKA plasmid) was “blocks the suppression of angiogenesis induced by PTHrP 1-34”.
`NC(N)=NCCNS(=O)(=O)c1cccc2cnccc12` [HA1004] was tested, and the “effect on apoptosis induced by integrin antagonists” value (HUVECS [3]; PKA inhibition (1 μM HA1004 or dnPKA), 24 h) was “substantially suppressed the apoptosis” and the “effect on caspase 3 cleavage induced by anti-α5β1” value (HUVECS [4]; cells attached to vitronectin) was “blocked caspase 3 cleavage”.
`COC(=O)CC[C@H](NC(=O)[C@H](CC(=O)OC)NC(=O)OCc1ccccc1)C(=O)N[C@H](C(=O)N[C@@H](CC(=O)OC)C(=O)CF)C(C)C` [caspase 3 inhibitors, z-DEVD-fmk] was tested, and the “caspase activity in vivo (cleaved caspase immunoblot)” value [5] was “partially blocked caspase 3 activity in vivo”, the “effect on endothelial cell DNA fragmentation induced by α5β1 inhibition in vivo” value [5] was “prevented in vivo endothelial cell DNA fragmentation” and the “effect on inhibition of angiogenesis by anti-αvβ3” value ([2]; bFGF stimulated CAMs) was “partially reversed”. For the same compound, the “effect on inhibition of angiogenesis by anti-α5β1” value ([2]; bFGF stimulated CAMs) was “partially reversed” and the “effect on cell death induced by anti-α5β1 antibodies” value (HUVECS [3]; 50 μM caspase inhibitor, cells on fibronectin or vitronectin, 24 h) was “blocked”.
In the case of `CC[C@H](C)[C@H](NC(=O)OCc1ccccc1)C(=O)N[C@@H](CCC(=O)OC)C(=O)N[C@H](C(=O)N[C@@H](CC(=O)OC)C(=O)CF)[C@@H](C)O` [caspase 8 inhibitors, z-IETD-fmk] (Cbz-IE(OMe)TD(OMe)-CH2F), the “caspase activity in vivo (cleaved caspase immunoblot)” value [5] is reported as “completely blocked its activity in vivo”, the “effect on endothelial cell DNA fragmentation induced by α5β1 inhibition in vivo” value [5] is reported as “prevented in vivo endothelial cell DNA fragmentation” and the “effect on inhibition of angiogenesis by anti-αvβ3” value ([2]; bFGF stimulated CAMs) is reported as “partially reversed”. For the same compound, the “effect on inhibition of angiogenesis by anti-α5β1” value ([2]; bFGF stimulated CAMs) was “fully reversed”.
In the case of “H L Q A H S V E D L (HLQAHSVEDL) [scrambled 1-10, scrambled version of PTHrP 1-10, control peptide]”, the “endothelial cell migration on vitronectin” value (“endothelial cell migration” for short) [1] is reported as “unable to inhibit cell migration”, the tumor growth ([6]; final serum concentration 1 μM) is reported as “but not a scrambled control peptide, suppressed tumor growth and tumor angiogenesis” and the “tumor angiogenesis (CD31 vessels)” value [6] is reported as “but not a scrambled control peptide, suppressed tumor growth and tumor angiogenesis”.
“PTHrP 1-86: PTHrP fragment containing the N-terminus, amino acids 1-86” was tested, and the “endothelial cell migration” value [1] was “inhibited migration” and the “angiogenesis (blood vessel branch points, vessel density)” value ([2]; bFGF stimulated CAMs) was “potently inhibited angiogenesis”.
“PTHrP 15-34: PTHrP fragment, amino acids 15-34 (IQDLRRRFFLHHLIAEIHTA)” was tested, and the “endothelial cell migration” value [1] was “unable to inhibit cell migration”.
For “PTHrP 107-138: PTHrP fragment lacking the N-terminus (TRSAWLDSGVTGSGLEGDHLSDTSTTSLELDS; UniProt P12272 143-174, looked up, fragment)”, the “endothelial cell migration” value [1] was “not able to inhibit cell migration”.
With “calcitonin: a calcium regulating peptide hormone (CGNLSTCMLGTYTQDFNKFHTFPQTAIGVGAP; ends and bridges not checked; cysteine pairing not given here; UniProt P01258 85-116, looked up)” the “angiogenesis (blood vessel branch points, vessel density)” value ([2]; bFGF stimulated CAMs) was “Only PTHrP inhibited angiogenesis” and the “pre-existing vessels (number, size, composition)” value ([2]; saline-stimulated CAMs) was “no effect on the number, size or composition of pre-existing vessels”.
cholera toxin was tested, and the PKA activation (protein kinase A) was “activates PKA”.
For “fibronectin: ECM protein used as culture substrate”, the “annexin V binding of HUVECs by culture substrate” value (HUVECS [3]; coated plates, 0-8 h) was “bind little annexin V”, the “DNA fragmentation by culture substrate” value (HUVECS [4]; HUVECs on coated plates) was “protects HUVECs from DNA fragmentation” and the “PARP cleavage by culture substrate” value (HUVECS [4]; HUVECs on coated plates) was “showed little PARP cleavage”.
In the case of pertussis toxin, the PKA activation (protein kinase A; inventors' data, no details given) is reported as “inhibits PKA activation”.
